Test results reported in the NIST ThermoML archive (doi:10.1021/je049559v).
Several values for one entry are separate records, joined by “and”; a condition that tells them apart may be missing. Equal entries are not always repeated. ± gives the expanded uncertainty stated by the source.

Details: Liquid; for viscosity: Capillary tube (Ostwald / Ubbelohde) method; for mass density: Vibrating tube method

COCOC [dimethoxymethane]
Details | mass density [kg/m3] | viscosity
218.09 K | – | 1.263 ± 0.024 mPa·s
223.09 K | – | 1.099 ± 0.021 mPa·s
228.1 K | – | 0.9649 ± 0.018 mPa·s
228.11 K | – | 0.9648 ± 0.018 mPa·s
233.1 K | – | 0.8557 ± 0.016 mPa·s and 0.8556 ± 0.016 mPa·s
233.16 K | 935.5 ± 2 | –
238.11 K | – | 0.7648 ± 0.015 mPa·s
243.14 K | – | 0.6886 ± 0.013 mPa·s
243.15 K | – | 0.6885 ± 0.013 mPa·s
243.16 K | 923.8 ± 2 | –
248.14 K | – | 0.6248 ± 0.012 mPa·s
253.13 K | – | 0.5705 ± 0.011 mPa·s
253.14 K | – | 0.5705 ± 0.011 mPa·s
253.16 K | 912.4 ± 2 | –
258.12 K | – | 0.524 ± 0.01 mPa·s
258.15 K | – | 0.5238 ± 0.01 mPa·s
263.07 K | – | 0.4841 ± 0.0094 mPa·s
263.09 K | – | 0.4839 ± 0.0094 mPa·s
263.15 K | 899.6 ± 2 | –
268.09 K | – | 0.4489 ± 0.0087 mPa·s
273.05 K | – | 0.4183 ± 0.0081 mPa·s
273.15 K | 886 ± 2 | –
278.05 K | – | 0.3912 ± 0.0076 mPa·s
283.1 K | – | 0.3669 ± 0.0072 mPa·s
283.15 K | 872.3 ± 2 | –
288.17 K | – | 0.3452 ± 0.0067 mPa·s and 0.3451 ± 0.0067 mPa·s
293.09 K | – | 0.3262 ± 0.0064 mPa·s
293.15 K | 858.1 ± 2 | –
298.12 K | – | 0.3086 ± 0.0061 mPa·s
298.13 K | – | 0.3086 ± 0.0061 mPa·s
303.12 K | – | 0.2927 ± 0.0058 mPa·s
303.13 K | – | 0.2927 ± 0.0058 mPa·s
303.15 K | 842.8 ± 2 | –
308.16 K | – | 0.2781 ± 0.0055 mPa·s
308.17 K | – | 0.2781 ± 0.0055 mPa·s
313.15 K | 827.9 ± 2 | –
313.16 K | – | 0.2647 ± 0.0052 mPa·s
318.16 K | – | 0.2524 ± 0.005 mPa·s
318.17 K | – | 0.2524 ± 0.005 mPa·s
323.15 K | – | 0.241 ± 0.0048 mPa·s and 0.2409 ± 0.0048 mPa·s
323.16 K | 814.1 ± 2 | –
328.14 K | – | 0.2303 ± 0.0046 mPa·s
333.14 K | – | 0.2202 ± 0.0044 mPa·s
333.15 K | 800 ± 2 | 0.2202 ± 0.0044 mPa·s
338.15 K | – | 0.2107 ± 0.0042 mPa·s
343.15 K | 785.2 ± 2 | 0.2017 ± 0.0041 mPa·s
348.16 K | – | 0.1931 ± 0.0039 mPa·s
353.12 K | – | 0.185 ± 0.0037 mPa·s
353.13 K | – | 0.185 ± 0.0037 mPa·s
353.16 K | 770.8 ± 2 | –
358.16 K | – | 0.1771 ± 0.0036 mPa·s
363.11 K | 755.9 ± 2 | –
363.15 K | – | 0.1696 ± 0.0035 mPa·s
368.14 K | – | 0.1624 ± 0.0033 mPa·s
368.16 K | – | 0.1623 ± 0.0033 mPa·s
373.14 K | – | 0.1554 ± 0.0032 mPa·s
378.15 K | – | 0.1486 ± 0.0031 mPa·s
383.15 K | – | 0.142 ± 0.003 mPa·s
383.16 K | – | 0.142 ± 0.003 mPa·s
